Where two headings read alike, the source gives them in different places.

Five compounds from US20140121407A1, “DEUTERATED PHENYLPROPIONIC ACID DERIVATIVE” (RESEARCH FOUNDATION ITSUU LABORATORY, priority 2011, published 2014) can be followed below.

This series in a line: In vivo kinetic parameters in mouse after oral administration (plasma, LC/MS). Particulars: for half-life: read-out: t½ (converted). Here is the method: 6-Week old ddY male mice were starved for 12 hours, and then used for the experiment. To the mice, Am80 (3.30 mg/kg), 3-[4-[(5,6,7,8-tetrahydro-5,5,8,8-tetramethyl-2-naphthalenyl)carbamoyl]phenyl]propionic acid (protium compound, M700, 3.56 mg/kg), or 3-[4-[(5,6,7,8-tetrahydro-5,5,8,8-tetramethyl-2-naphthalenyl)carbamoyl]phenyl]propionic acid-2,2,3,3-d4 (deuterated propionic acid derivative, Y616, 3.60 mg/kg) was orally administered (the dose in terms of molar amount was 9.4 μmol/kg for all the compounds). A 94 mM solution of each compound in DMSO was prepared, and suspended in 0.5% methylcellulose so as to be diluted 100 times, and the suspension was orally administered at a dose of 10 ml/kg by using a 1-ml syringe and a catheter for oral administration.
After 15 minutes, 30 minutes, 1 hour, 2 hours, 3 hours, 6 hours, 12 hours, and 24 hours from the administration of each compound, whole blood was collected from the mouse abdominal aorta under diethyl ether anesthesia by using a heparin-treated glass syringe and a 26G hypodermic needle (five mice were used for each compound). The collected blood was centrifuged at 13,700×g and 4° C. for 5 minutes to separate the plasma, and the separated plasma was stored at −30° C.
The plasma (100 μL) was put into a 1.5-ml tube, and added with ethyl acetate (400 μl), the mixture was stirred, ultrasonicated for 1 minute, and centrifuged at 13,700×g and 20° C. for 3 minutes, and the supernatant was collected. The residue was added with ethyl acetate (400 μl), and the mixture was subjected once again to the aforementioned procedure. The collected supernatant was put into a 1.5-ml tube in an appropriate volume, and dried with nitrogen gas. The residue was dissolved in methanol (100 μl) to obtain a sample for LC/MS.
All the samples were used for […] in a volume of 5 μl. The LC/MS apparatus used was constituted with Waters 2695 Separations Module (Nihon Waters) and 3100 Mass Detector (Nihon Waters). Each compound was quantified by the absolute calibration curve method.

The mark [1] stands for this setting: Administration of M700, 3.56 mg/kg (9.4 μmol/kg) oral, ddY male mice, plasma, label = analyte measured.
Where [2] appears, read: mouse, 3.3 mg/kg, Administration of AM80, 3.30 mg/kg (9.4 μmol/kg) oral, ddY male mice, plasma.
The mark [3] stands for this setting: mouse, 3.6 mg/kg, Administration of Y616, 3.60 mg/kg (9.4 μmol/kg) oral, ddY male mice, plasma, label = analyte measured.
[4] abbreviates: mouse, 3.6 mg/kg, Administration of Y616, 3.60 mg/kg (9.4 μmol/kg) oral, ddY male mice, plasma, label = analyte measured, read-out: AUC.
The mark [5] stands for this setting: mouse, 3.6 mg/kg, Administration of Y616, 3.60 mg/kg (9.4 μmol/kg) oral, ddY male mice, plasma, label = analyte measured, read-out: Tmax.
[6] abbreviates: mouse, Administration of M700, 3.56 mg/kg (9.4 μmol/kg) oral, ddY male mice, plasma, label = analyte measured.
The mark [7] stands for this setting: mouse, Administration of M700, 3.56 mg/kg (9.4 μmol/kg) oral, ddY male mice, plasma, label = analyte measured, read-out: AUC.
Setting [8] is: mouse, Administration of M700, 3.56 mg/kg (9.4 μmol/kg) oral, ddY male mice, plasma, label = analyte measured, read-out: Tmax.
The mark [9] stands for this setting: oral, mouse, after administration of the labelled prodrug.
[10] abbreviates: oral, mouse, compared with the protium compound.

Regarding “4-[(5,6,7,8-tetrahydro-5,5,8,8-tetramethyl-2-naphthalenyl)carbamoyl]phenylcinnamic acid [Example M700-M1]”, under setting [1], the AUC (in general, the area under the concentration-time curve, a measure of exposure) was found to be 0.54 µM·h; the maximum concentration (Cmax) (usually the maximum level reached in the sampled fluid or tissue) was 710 nM; the Tmax (commonly the time at which the peak concentration occurs) was found to be 30 min; the t½ (in general, the time in which the quantity being followed falls by half) was found to be 28.2 min.
For the compound `CC1(C)CCC(C)(C)c2cc(NC(=O)c3ccc(C(=O)O)cc3)ccc21` [Am80, 4-[(5,6,7,8-tetrahydro-5,5,8,8-tetramethyl-2-naphthalenyl)carbamoyl]benzoic acid], the Cmax by setting is: under setting [2], 1870 nM; under setting [3], 930 nM; under setting [6], 1060 nM. Besides, the AUC (mouse, 3.3 mg/kg, Administration of AM80, 3.30 mg/kg (9.4 μmol/kg) oral, ddY male mice, plasma, read-out: AUC) turned out to be 2.8 µM·h; the AUC under setting [4] was 3.48 µM·h; the AUC under setting [7] came to 2.74 µM·h. Besides, the time of peak concentration (Tmax) worked out at 30 min (mouse, 3.3 mg/kg, Administration of AM80, 3.30 mg/kg (9.4 μmol/kg) oral, ddY male mice, plasma, read-out: Tmax); 60 min under setting [5]; 60 min under setting [8]. The half-life by setting is: under setting [2], 48.6 min; under setting [3], 133 min; under setting [6], 73.2 min.
As for `CC1(C)CCC(C)(C)c2cc(NC(=O)c3ccc(CCC(=O)O)cc3)ccc21` [Example M700, 3-[4-[(5,6,7,8-tetrahydro-5,5,8,8-tetramethyl-2-naphthalenyl)carbamoyl]phenyl]propionic acid], under setting [6], the Cmax was determined as 1620 nM and the half-life is 28.2 min. Also, under setting [7], the AUC was found to be 1.32 µM·h. Further, the Tmax under setting [8] amounted to 30 min.
For `CC1(C)CCC(C)(C)c2cc(NC(=O)c3ccc(C(O)CC(=O)O)cc3)ccc21` (centres unmarked) [Example M700-M2, 3-[4-[(5,6,7,8-tetrahydro-5,5,8,8-tetramethyl-2-naphthalenyl)carbamoyl]phenyl]-3-hydroxypropionic acid], under setting [6], the Cmax is 20 nM and the half-life was 25.8 min. Moreover, under setting [7], the AUC was determined as 0.02 µM·h. The Tmax under setting [8] came to 30 min.
On to `[2H]C([2H])(C(=O)O)C([2H])([2H])c1ccc(C(=O)Nc2ccc3c(c2)C(C)(C)CCC3(C)C)cc1` [Example Y616, 3-[4-[(5,6,7,8-tetrahydro-5,5,8,8-tetramethyl-2-naphthalenyl)carbamoyl]phenyl]propionic acid-2,2,3,3-d4], for which, under setting [3], the highest level (Cmax) was 1370 nM and the half-life is 49.8 min. Further, under setting [4], the AUC turned out to be 1.95 µM·h. The time to peak (Tmax) under setting [5] came out at 30 min. Under setting [9], the “metabolic intermediate M1 generated” value was “markedly decreased” and the “metabolic intermediate M2 generated” value is recorded as “not observed”. For the same compound, under setting [10], the “AUC of the prodrug” value is given as “increased” and the “half-life (t½) of the prodrug” value was “extended”.
